# Measurements as given in patent US20230322717A1, “SOLID FORM OF PYRAZINE SUBSTITUTED NICOTINAMIDE, AND PREPARATION AND USE THEREOF” (Shenzhen TargetRx, Inc., priority 2020, published 2023).
# Tests used:
# Format in all cases: physicochemical
# [1] = Stability study of the crystal form I of compound A and the crystal form I of compound A p-toluenesulfonate (HPLC, XRPD)
# Method: A certain amount of samples of the crystal form I of compound A and the crystal form I of compound A p-toluenesulfonate (Batch No.: PTSA-A1) were placed in a stability test chamber, and kept at 40° C./75%RH and 60° C. for 7 days, respectively. The samples were tested by HPLC and XRPD at various time points.
# [2] = Solubility study in SGF, FaSSIF and FeSSIF (HPLC of filtrate, XRPD of solid); details: 37° C.; for Crystal form: XRPD of solid
# Method: The solubilities of the crystal form I of compound A and the crystal form I of compound A p-toluenesulfonate in SGF (simulated gastric fluid), FaSSIF (fasted state simulated intestinal fluid) and FeSSIF (fed state simulated intestinal fluid) were studied.
# The solubilities of samples in SGF, FaSSIF and FeSSIF at 37° C. for 24 hours were determined. 40 mg of the sample was placed in a sample bottle, and 1.5 mL of solvent was added. The mixture was mixed well, and shaken on a shaker at 200 rpm for 24 hours. The suspension was filtered at 0.5, 2 and 24 hours. The filtrate was analyzed by HPLC, and the solid was tested by XRPD.
# [3] = Dynamic moisture adsorption and desorption analysis (DVS); details: for crystal form after DVS test (XRPD): before and after DVS test; for hygroscopicity (DVS): moisture range 0% to 90%
# Method: The instrument model used for dynamic moisture adsorption and desorption analysis was IGA Sorp (Hidentity Isochema). The samples were measured in a gradient mode with a moisture range of 0% to 90%, wherein the humidity increment of each gradient was 10%.
smiles,measurement,setting,value
Cc1ccc(S(=O)(=O)O)cc1.O=C(Nc1ccc(OC(F)(F)Cl)cc1)c1cnc(N2CC[C@@H](F)C2)c(-c2cnccn2)c1,Purity,"[1]; 40° C./75% RH, Day 0, HPLC",97.9%
same,Purity,"[1]; 40° C./75% RH, Day 3, HPLC",97.9%
same,Crystal form,"[1]; 40° C./75% RH, Day 3, XRPD",Initial crystal form
same,Purity,"[1]; 40° C./75% RH, Day 7, HPLC",97.9%
same,Crystal form,"[1]; 40° C./75% RH, Day 7, XRPD",Initial crystal form
same,Purity,"[1]; 60° C., Day 0, HPLC",97.9%
same,Purity,"[1]; 60° C., Day 3, HPLC",97.9%
same,Crystal form,"[1]; 60° C., Day 3, XRPD",Initial crystal form
same,Purity,"[1]; 60° C., Day 7, HPLC",97.9%
same,Crystal form,"[1]; 60° C., Day 7, XRPD",Initial crystal form
same,Solubility,"[2]; FaSSIF, 0.5 h",4.5 µg/mL
same,pH,"[2]; FaSSIF, 0.5 h",6.38
same,Crystal form,"[2]; FaSSIF, 0.5 h",Changed
same,Solubility,"[2]; FaSSIF, 2 h",3.7 µg/mL
same,pH,"[2]; FaSSIF, 2 h",3.48
same,Crystal form,"[2]; FaSSIF, 2 h",Changed
same,Solubility,"[2]; FaSSIF, 24 h",16 µg/mL
same,pH,"[2]; FaSSIF, 24 h",1.91
same,Crystal form,"[2]; FaSSIF, 24 h",Changed
same,Solubility,"[2]; FeSSIF, 0.5 h",100 µg/mL
same,pH,"[2]; FeSSIF, 0.5 h",4.53
same,Crystal form,"[2]; FeSSIF, 0.5 h",Changed
same,Solubility,"[2]; FeSSIF, 2 h",93 µg/mL
same,pH,"[2]; FeSSIF, 2 h",4.51
same,Crystal form,"[2]; FeSSIF, 2 h",Changed
same,Solubility,"[2]; FeSSIF, 24 h",180 µg/mL
same,pH,"[2]; FeSSIF, 24 h",4.50
same,Crystal form,"[2]; FeSSIF, 24 h",Changed
same,Solubility,"[2]; SGF, 0.5 h",97 µg/mL
same,pH,"[2]; SGF, 0.5 h",1.23
same,Crystal form,"[2]; SGF, 0.5 h",Initial crystal form
same,Solubility,"[2]; SGF, 2 h",67 µg/mL
same,pH,"[2]; SGF, 2 h",1.19
same,Crystal form,"[2]; SGF, 2 h",Initial crystal form
same,Solubility,"[2]; SGF, 24 h",45 µg/mL
same,pH,"[2]; SGF, 24 h",1.18
same,Crystal form,"[2]; SGF, 24 h",Changed
O=C(Nc1ccc(OC(F)(F)Cl)cc1)c1cnc(N2CC[C@@H](F)C2)c(-c2cnccn2)c1.O=S(=O)(O)c1ccccc1 [(R)-N-(4-(chlorodifluoromethoxy)phenyl)-6-(3-fluoropyrrolidin-1-yl)-5-(pyrazin-2-yl)nicotinamide benzenesulfonate],water absorption,[3]; 0-60%RH,about 0.4%
same,water absorption,[3]; 0-90%RH,about 1.5%
same,crystal form after DVS test (XRPD),[3],not changed
same,hygroscopicity (DVS),[3],slightly hygroscopic
Br.O=C(Nc1ccc(OC(F)(F)Cl)cc1)c1cnc(N2CC[C@@H](F)C2)c(-c2cnccn2)c1 [(R)-N-(4-(chlorodifluoromethoxy)phenyl)-6-(3-fluoropyrrolidin-1-yl)-5-(pyrazin-2-yl)nicotinamide hydrobromide],water absorption,[3]; 0-80%RH,about 0.67%
same,crystal form after DVS test (XRPD),[3],not changed
same,hygroscopicity (DVS),[3],slightly hygroscopic
Cl.O=C(Nc1ccc(OC(F)(F)Cl)cc1)c1cnc(N2CC[C@@H](F)C2)c(-c2cnccn2)c1 [(R)-N-(4-(chlorodifluoromethoxy)phenyl)-6-(3-fluoropyrrolidin-1-yl)-5-(pyrazin-2-yl)nicotinamide hydrochloride],water absorption,[3]; 0-40%RH (relative humidity),about 0.4%
same,water absorption,[3]; 0-90%RH,about 2.8%
same,crystal form after DVS test (XRPD),[3],not changed
same,hygroscopicity (DVS),[3],slightly hygroscopic
